Data: article PMC7781899, “Synthesis of some quinazolinones inspired from the natural alkaloid L-norephedrine as EGFR inhibitors and radiosensitizers” (Journal of Enzyme Inhibition and Medicinal Chemistry, 2020)
Blank lines part the entries; values can stand above or below the molecule they belong to.

Key:
[1] = tested on: HepG-2; assay: MTT cytotoxicity assay, HepG-2; format: cell-based, human; conditions: for IC50: Homo sapiens
Description: (§1) The 96-well plate was incubated for 24 h before the MTT assay. […] Cells were cultured using DMEM supplemented with 10% foetal bovine serum, 10 µg/mL insulin and 1% penicillin–streptomycin. Reconstituted MTT (10%) was added and incubated for 2 h. Formazan crystals were dissolved by the MTT solubilizing solution after incubation. Absorbance was measured at a wavelength of 570 nm[28].

[2] = tested on: MCF-7; assay: MTT cytotoxicity assay, MCF-7; format: cell-based, human; conditions: for IC50: Homo sapiens; for Selectivity index (SI) MCF-7: relative to MCF-10A normal cells
Description: as §1

[3] = target: T1, EGFR (Homo sapiens, UniProt P00533); assay: EGFR kinase assay; format: biochemical; conditions: EGFR-TK inhibitory assay; means ± SE, three repeats
T1 construct: purchased Invitrogen
T1 sequence (P00533 25-1210): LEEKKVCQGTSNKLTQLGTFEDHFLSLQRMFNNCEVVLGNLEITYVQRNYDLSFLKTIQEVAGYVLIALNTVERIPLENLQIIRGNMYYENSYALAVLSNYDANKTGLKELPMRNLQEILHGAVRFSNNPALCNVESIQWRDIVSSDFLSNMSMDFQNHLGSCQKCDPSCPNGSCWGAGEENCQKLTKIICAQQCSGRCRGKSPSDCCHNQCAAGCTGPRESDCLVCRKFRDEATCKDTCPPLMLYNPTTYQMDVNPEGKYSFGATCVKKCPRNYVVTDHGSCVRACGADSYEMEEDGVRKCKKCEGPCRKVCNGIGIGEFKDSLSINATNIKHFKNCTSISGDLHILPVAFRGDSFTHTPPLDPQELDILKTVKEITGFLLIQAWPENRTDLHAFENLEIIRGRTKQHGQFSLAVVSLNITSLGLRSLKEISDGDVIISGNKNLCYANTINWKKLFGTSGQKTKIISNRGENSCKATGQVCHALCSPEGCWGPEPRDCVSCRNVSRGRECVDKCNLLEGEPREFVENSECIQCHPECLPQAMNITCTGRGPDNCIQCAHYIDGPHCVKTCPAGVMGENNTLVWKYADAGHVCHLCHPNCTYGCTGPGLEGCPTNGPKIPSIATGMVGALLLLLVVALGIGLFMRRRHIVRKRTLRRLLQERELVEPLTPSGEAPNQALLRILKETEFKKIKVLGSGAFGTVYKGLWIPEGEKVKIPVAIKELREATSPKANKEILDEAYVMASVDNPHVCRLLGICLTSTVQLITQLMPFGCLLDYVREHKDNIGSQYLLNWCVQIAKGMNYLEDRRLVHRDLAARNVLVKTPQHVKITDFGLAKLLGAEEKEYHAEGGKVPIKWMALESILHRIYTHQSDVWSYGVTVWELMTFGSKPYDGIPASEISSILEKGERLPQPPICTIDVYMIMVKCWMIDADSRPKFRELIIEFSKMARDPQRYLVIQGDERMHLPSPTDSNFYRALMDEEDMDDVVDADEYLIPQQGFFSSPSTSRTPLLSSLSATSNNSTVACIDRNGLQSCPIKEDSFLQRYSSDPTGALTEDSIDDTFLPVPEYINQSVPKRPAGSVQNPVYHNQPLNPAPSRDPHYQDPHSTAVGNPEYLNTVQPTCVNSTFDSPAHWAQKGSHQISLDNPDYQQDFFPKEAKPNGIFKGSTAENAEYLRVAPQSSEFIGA
Description: An ATP solution and a kinase/peptide mixture were developed just before use. […] Then, […] of the prepared solution was added to each well. The plate was incubated for 1 h and determined by an ELISA Reader (PerkinElmer, USA). Curve fitting using Graph Pad Prism 5 was constructed. Each experiment was repeated three times. IC50 was represented as means ± SE.

[4] = tested on: HCT-116; assay: MTT cytotoxicity assay, HCT-116; format: cell-based, human; conditions: for IC50: Homo sapiens; for Selectivity index (SI) HCT-116: relative to MCF-10A normal cells
Description: as §1

[5] = tested on: MDA-MB-231; assay: MTT cytotoxicity assay, MDA-MB-231; format: cell-based, human; conditions: for IC50: Homo sapiens; for Selectivity index (SI) MDA-MB-231: relative to MCF-10A normal cells
Description: as §1

[6] = tested on: MDA-MB-231, MCF-7, HCT-116, HepG-2; assay: Radiosensitizing evaluation, all tested cell lines; format: cell-based; conditions: Homo sapiens, light or radiation study; single dose of 8 Gy gamma radiation; read-out: IC50 on all the tested cell lines after irradiation
Description: (§2) Irradiation was performed at the National Centre for Radiation Research and Technology (NCRRT), Egyptian Atomic Energy Authority, using Gamma cell-40 (^137Cs) source. The promising compounds 5 and 6 were selected to be re-evaluated for in vitro cytotoxic activity after the cells containing the compounds were gamma-irradiated at a dose level of 8 Gy with a dose rate of 0.758 rad/s for 17.59 min. Cytotoxicity was measured two days after irradiation. The IC50 of the tested compounds is calculated using GraphPad Prism 5.

[7] = tested on: MDA-MB-231 cells; assay: Cell cycle analysis by flow cytometry (PI); format: cell-based, human; conditions: 0.76 μM, 24 h
Description: The MDA-MB-231 cells (10^5/well) were incubated with compound 5 at its IC50. After 24 h, the cells were washed twice with PBS, then collected and fixed with ice-cold ethanol 70% (v/v). The cells were re-suspended with 0.1 mg/mL RNase, stained with […] PI and examined using flow cytometry (FACScalibur-Becton Dickinson).

[8] = tested on: MCF-10A normal breast cell line; assay: MTT cytotoxicity assay, MCF-10A normal cells; format: cell-based; conditions: Homo sapiens
Description: as §1

[9] = tested on: HepG-2; assay: Radiosensitizing evaluation, HepG-2; format: cell-based; conditions: Homo sapiens, HepG2, light or radiation study, 48 h; single dose of 8 Gy gamma radiation; measured two days after irradiation
Description: as §2

[10] = tested on: HCT-116; assay: Radiosensitizing evaluation, HCT-116; format: cell-based; conditions: Homo sapiens, HCT-116, light or radiation study, 48 h; single dose of 8 Gy gamma radiation; measured two days after irradiation
Description: as §2

[11] = tested on: MCF-7; assay: Radiosensitizing evaluation, MCF-7; format: cell-based; conditions: Homo sapiens, MCF7, light or radiation study, 48 h; single dose of 8 Gy gamma radiation; measured two days after irradiation
Description: as §2

[12] = tested on: MDA-MB-231; assay: Radiosensitizing evaluation, MDA-MB-231; format: cell-based; conditions: Homo sapiens, MDA-MB-231, light or radiation study, 48 h; single dose of 8 Gy gamma radiation; measured two days after irradiation
Description: as §2

[13] = tested on: MDA-MB-231, MCF-7, HepG-2 and HCT-116 human cancer cell lines; assay: MTT assay, panel of cancer cell lines; format: cell-based; conditions: range over MDA-MB-231, MCF-7, HepG-2, HCT-116, read-out: IC50 against all the cell lines
Description: as §1

[14] = tested on: MDA-MB-231 cells; assay: Apoptotic assay, Annexin V-FITC/PI; format: cell-based, human; conditions: 0.76 μM, 24 h
Description: Cells were prepared as previously mentioned. Treatment of cells (10^5) with Annexin V-FITC and propidium iodide (PI) was by apoptosis detection kit [BD Biosciences, San Jose, CA]. The binding of Annexin V-FITC and PI was examined using flow cytometry FACScalibur (BD Biosciences, San Jose, CA). CellQuest software was used for performing quadrant analysis of co-ordinate dot plots.

[15] = HepG2, MTT assay, mean of three experiments ± SE, read-out: IC50 HepG-2
[16] = MCF7, MTT assay, mean of three experiments ± SE, read-out: IC50 MCF-7
[17] = HCT-116, MTT assay, mean of three experiments ± SE, read-out: IC50 HCT-116
[18] = MDA-MB-231, MTT assay, mean of three experiments ± SE, read-out: IC50 MDA-MB-231

IC50 [3]: 1.39 ± 0.14 µM
SMILES: CC(C(O)c1ccccc1)n1c(=S)[nH]c2ccccc2c1=O (stereo not drawn) [Compound 4, 3-(1-hydroxy-1-phenylpropan-2-yl)-2-thioxo-2,3-dihydroquinazolin-4(1H)-one]
IC50 [1, 15]: 22.7 ± 0.61 µM
IC50 [2, 16]: 25.55 ± 0.02 µM
IC50 [4, 17]: 23.49 ± 0.05 µM
IC50 [5, 18]: 35.24 ± 0.24 µM

melting point: 121.5 °C
IC50 [3]: 0.76 ± 0.1 µM
IC50 [13]: 1.53 to 5.76 µM
SMILES: CSc1nc2ccccc2c(=O)n1C(C)C(O)c1ccccc1 (stereo not drawn) [Compound 5, 3-(1-Hydroxy-1-phenylpropan-2-yl)-2-(methylthio)quinazolin-4(3H)-one]
IC50 [1, 15]: 4.14 ± 0.03 µM
Selectivity index (SI) HepG-2 ([1]; relative to MCF-10A normal cells): 14.93
IC50 [6]: < 5 µM
IC50 [2, 16]: 5.43 ± 0.14 µM
Selectivity index (SI) MCF-7 [2]: 11.39
% G2-M [7]: 40.39%
% Pre-G1 [7]: 19.23%
% S [7]: 34.84%
%G0-G1 [7]: 24.77%
rise of percentage of cells at pri-G1 phase over control [7]: 10 folds
IC50 [8]: 61.9 ± 2.14 µM
IC50 [9]: 2.34 ± 0.23 µM
IC50 [10]: 2.28 ± 0.41 µM
IC50 [11]: 2.35 ± 0.18 µM
IC50 [12]: 0.78 ± 0.15 µM
Apoptotic assay % Early [14]: 7.36%
Apoptotic assay % Late [14]: 11.74%
Apoptotic assay % Necrosis [14]: 3.84%
Apoptotic assay % Total [14]: 22.94%
apoptosis over the control [14]: more than 12 folds
IC50 [4, 17]: 5.76 ± 0.11 µM
Selectivity index (SI) HCT-116 [4]: 10.74
IC50 [5, 18]: 1.53 ± 0.01 µM
Selectivity index (SI) MDA-MB-231 [5]: 40.42

melting point: 261.2 °C
IC50 [3]: 2.13 ± 0.21 µM
SMILES: Nn1c(=S)[nH]c2ccccc2c1=O [Compound 6, 3-Amino-2-thioxo-2,3-dihydroquinazolin-4(1H)-one]
IC50 [1, 15]: 17.6 ± 0.15 µM
IC50 [2, 16]: 7.23 ± 0.07 µM
Selectivity index (SI) MCF-7 [2]: 6.81
IC50 [8]: 49.2 ± 1.52 µM
IC50 [9]: 14.26 ± 0.11 µM
IC50 [10]: 6.98 ± 0.25 µM
IC50 [11]: 4.26 ± 0.01 µM
IC50 [12]: 1.04 ± 0.04 µM
IC50 [4, 17]: 10.6 ± 0.19 µM
Selectivity index (SI) HCT-116 [4]: 4.64
IC50 [5, 18]: 1.6 ± 0.01 µM
Selectivity index (SI) MDA-MB-231 [5]: 30.75

melting point: 178.9 °C
IC50 [3]: 3.44 ± 0.15 µM
SMILES: CSc1nc2ccccc2c(=O)n1N [Compound 7, 3-Amino-2-(methylthio)quinazolin-4(3H)-one]
IC50 [1, 15]: 48.3 ± 0.93 µM
IC50 [2, 16]: 68.1 ± 1.21 µM
IC50 [4, 17]: 59.2 ± 0.78 µM
IC50 [5, 18]: 23.48 ± 0.06 µM

IC50 [3]: 3.74 ± 0.17 µM
SMILES: CC1C(c2ccccc2)Sc2nc3ccccc3c(=O)n21 (stereo not drawn) [Compound 8, 3-Methyl-2-phenyl-2H-thiazolo[2,3-b]quinazolin-5(3H)-one]
IC50 [1, 15]: 47.32 ± 0.47 µM
IC50 [2, 16]: 70.1 ± 0.87 µM
IC50 [4, 17]: 49.22 ± 0.49 µM
IC50 [5, 18]: 38.19 ± 0.38 µM

IC50 [3]: 9.78 ± 0.31 µM
SMILES: CC1Nn2c(nc3ccccc3c2=O)OC1c1ccccc1 (stereo not drawn) [Compound 9, 3-Methyl-2-phenyl-3,4-dihydro-[1,3,4]oxadiazino[2,3-b]quinazolin-6(2H)-one]
IC50 [1, 15]: > 100 µM
IC50 [2, 16]: > 100 µM
IC50 [4, 17]: 90.54 ± 0.73 µM
IC50 [5, 18]: 84.15 ± 0.62 µM

IC50 [3]: 3.09 ± 0.2 µM
SMILES: CC1Nn2c(nc3ccccc3c2=O)SC1c1ccccc1 (stereo not drawn) [Compound 10, 3-methyl-2-phenyl-3,4-dihydro-[1,3,4]thiadiazino[2,3-b]quinazolin-6(2H)-one]
IC50 [1, 15]: 35.6 ± 0.36 µM
IC50 [2, 16]: 37.31 ± 0.29 µM
IC50 [4, 17]: 46.3 ± 0.63 µM
IC50 [5, 18]: 21.86 ± 0.04 µM

melting point: 147.5 °C
IC50 [3]: 3.87 ± 0.11 µM
SMILES: CC(Nc1nc2ccccc2c(=O)n1N)C(O)c1ccccc1 (stereo not drawn) [Compound 11, 3-amino-2-(1-hydroxy-1-phenylpropan-2-ylamino)quinazolin-4(3H)-one]
IC50 [1, 15]: 33.65 ± 0.26 µM
IC50 [2, 16]: 39.42 ± 0.3 µM
IC50 [4, 17]: 44.15 ± 0.22 µM
IC50 [5, 18]: 16.39 ± 0.06 µM

IC50 [3]: 7.39 ± 0.28 µM
SMILES: Nn1c(O)nc2ccccc2c1=O [Compound 12, 3-Amino-2-hydroxyquinazolin-4(3H)-one]
IC50 [1, 15]: 20.5 ± 0.31 µM
IC50 [2, 16]: 66.3 ± 0.72 µM
IC50 [4, 17]: 50.75 ± 0.29 µM
IC50 [5, 18]: 57.78 ± 0.43 µM

IC50 [3]: 8.35 ± 0.32 µM
SMILES: CCOc1nc2ccccc2c(=O)n1N [Compound 13, 3-amino-2-ethoxyquinazolin-4(3H)-one]
IC50 [1, 15]: > 100 µM
IC50 [2, 16]: > 100 µM
IC50 [4, 17]: > 100 µM
IC50 [5, 18]: 81.43 ± 0.27 µM

melting point: 294.1 °C
IC50 [3]: 1.39 ± 0.27 µM
SMILES: O=c1c2ccccc2nc2[nH]n3c(=O)c4ccccc4nc3[nH]n12 [Compound 14, [1,2,4,5]tetrazino[3,2-b:6,5-b']diquinazoline-8,16(6H,14H)-dione]
IC50 [1, 15]: 41.25 ± 0.23 µM
IC50 [2, 16]: 30.12 ± 0.19 µM
IC50 [4, 17]: 29.32 ± 0.16 µM
IC50 [5, 18]: 26.55 ± 0.04 µM

IC50 [3]: 1.09 ± 0.12 µM
SMILES: CC1C(c2ccccc2)Oc2nc3ccccc3c(=O)n21 (stereo not drawn) [Compound 15, 3-Methyl-2-phenyl-2H-oxazolo[2,3-b]quinazolin-5(3H)-one]
IC50 [1, 15]: 28.5 ± 0.4 µM
IC50 [2, 16]: 19.67 ± 0.13 µM
IC50 [4, 17]: 26.51 ± 0.17 µM
IC50 [5, 18]: 2.41 ± 0.03 µM

IC50 [3]: 1.02 ± 0.05 µM
SMILES: CC1C(c2ccccc2)Oc2nc3ccccc3c(=O)n2C(C)C(c2ccccc2)Oc2nc3ccccc3c(=O)n21 (stereo not drawn) [Compound 17, 8,18-dimethyl-7,17-diphenyl-7,8,17,18-tetrahydro-[1,6,3,8]dioxadiazecino[2,3-b:7,8-b']diquinazoline-10,20-dione]
IC50 [1, 15]: 24.3 ± 0.18 µM
IC50 [2, 16]: 20.1 ± 0.27 µM
IC50 [4, 17]: 18.4 ± 0.2 µM
IC50 [5, 18]: 5.45 ± 0.06 µM

IC50 [3]: 0.99 ± 0.04 µM
SMILES: CC(Nc1nc2ccccc2c(=O)n1C(C)C(O)c1ccccc1)C(O)c1ccccc1 (stereo not drawn) [Compound 18, 3-(1-hydroxy-1-phenylpropan-2-yl)-2-(1-hydroxy-1-phenylpropan-2-ylamino)quinazolin-4(3H)-one]
IC50 [1, 15]: 50 ± 0.13 µM
IC50 [2, 16]: 62.59 ± 0.18 µM
IC50 [4, 17]: 44.9 ± 0.52 µM
IC50 [5, 18]: 62.94 ± 0.1 µM

SMILES: C#Cc1cccc(Nc2ncnc3cc(OCCOC)c(OCCOC)cc23)c1 [Erlotinib, reference compound]
IC50 ([1]; HepG2, read-out: IC50 HepG-2): 3.04 ± 0.2 µM
IC50 ([2]; MCF7, read-out: IC50 MCF-7): 4.48 ± 0.02 µM
IC50 ([4]; HCT-116, read-out: IC50 HCT-116): 2.78 ± 0.04 µM
IC50 ([5]; MDA-MB-231, read-out: IC50 MDA-MB-231): 3.73 ± 0.01 µM
